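Five concentrations, 48 hours, 96-well plates. GI50 marks 50% less growth. The concentration for full growth arrest is given as TGI.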
Legend:
Test in all cases: growth of human tumour cells (NCI), 48 h
[1] = system: 786-0 renal
[2] = system: A549 NSCLC
[3] = system: ACHN renal
[4] = system: BT-549 breast
[5] = system: CAKI-1 renal
[6] = system: DU-145 prostate
[7] = system: HCC-2998 colon
[8] = system: HCT-116 colon
[9] = system: HCT-15 colon
[10] = system: HL-60(TB) leukemia
[11] = system: HOP-62 NSCLC
[12] = system: HOP-92 NSCLC
[13] = system: HS 578T breast
[14] = system: HT29 colon
[15] = system: IGROV1 ovarian
[16] = system: K-562 leukemia
[17] = system: KM12 colon
[18] = system: M14 melanoma
[19] = system: MALME-3M melanoma
[20] = system: MCF7 breast
[21] = system: MDA-MB-231 breast
[22] = system: MDA-MB-435
[23] = system: MDA-N
[24] = system: MOLT-4 leukemia
[25] = system: NCI-H226 lung
[26] = system: NCI-H23 lung
[27] = system: NCI-H460 lung
[28] = system: NCI-H522 lung
[29] = system: NCI/ADR-RES ovarian
[30] = system: OVCAR-3 ovarian
[31] = system: OVCAR-5 ovarian
[32] = system: OVCAR-8 ovarian
[33] = system: PC-3 prostate
[34] = system: RPMI-8226 leukemia
[35] = system: RXF 393 renal
[36] = system: SF-268 CNS
[37] = system: SF-295 CNS
[38] = system: SF-539 CNS
[39] = system: SK-MEL-2 melanoma
[40] = system: SK-MEL-28 melanoma
[41] = system: SK-MEL-5 melanoma
[42] = system: SNB-19 CNS
[43] = system: SNB-75 CNS
[44] = system: SR leukemia
[45] = system: SW-620 colon
[46] = system: T-47D breast
[47] = system: TK-10 renal
[48] = system: U251 CNS
[49] = system: UACC-257 melanoma
[50] = system: UACC-62 melanoma
[51] = system: UO-31 renal
[52] = system: CCRF-CEM leukemia
[53] = system: COLO 205 colon
[54] = system: EKVX NSCLC
[55] = system: OVCAR-4 ovarian
[56] = system: SK-OV-3 ovarian
[57] = system: SN12C renal

## N#CCC(=O)Nn1c(CC#N)nnc1Cc1ccccc1
[1]
  TGI: > 100 µM
[2]
  TGI: > 100 µM
[3]
  TGI: > 100 µM
[4]
  TGI: > 100 µM
[5]
  TGI: > 100 µM
[6]
  TGI: > 100 µM
[7]
  TGI: > 100 µM
[8]
  TGI: > 100 µM
[9]
  TGI: > 100 µM
[10]
  TGI: > 100 µM
[11]
  TGI: > 100 µM
[12]
  TGI: > 100 µM
[13]
  TGI: > 100 µM
[14]
  TGI: > 100 µM
[15]
  TGI: > 100 µM
[16]
  TGI: > 100 µM
[17]
  TGI: > 100 µM
[18]
  TGI: > 100 µM
[19]
  TGI: > 100 µM
[20]
  TGI: > 100 µM
[21]
  TGI: > 100 µM
[22]
  TGI: > 100 µM
[23]
  TGI: > 100 µM
[24]
  TGI: > 100 µM
[25]
  TGI: > 100 µM
[26]
  TGI: > 100 µM
[27]
  TGI: > 100 µM
[28]
  TGI: > 100 µM
[29]
  TGI: > 100 µM
[30]
  TGI: > 100 µM
[31]
  TGI: > 100 µM
[32]
  TGI: > 100 µM
[33]
  TGI: > 100 µM
[34]
  TGI: > 100 µM
[35]
  TGI: > 100 µM
[36]
  TGI: > 100 µM
[37]
  TGI: > 100 µM
[38]
  TGI: > 100 µM
[39]
  TGI: > 100 µM
[40]
  TGI: > 100 µM
[41]
  TGI: > 100 µM
[42]
  TGI: > 100 µM
[43]
  TGI: > 100 µM
[44]
  TGI: > 100 µM
[45]
  TGI: > 100 µM
[46]
  TGI: > 100 µM
[47]
  TGI: > 100 µM
[48]
  TGI: > 100 µM
[49]
  TGI: > 100 µM
[50]
  TGI: > 100 µM
[51]
  TGI: > 100 µM

## [Cu+2].[O-]c1ccc2ccccc2c1N=Nc1ccccc1.[O-]c1ccc2ccccc2c1N=Nc1ccccc1
[1]
  GI50: 72.7 µM
  TGI: > 100 µM
[2]
  TGI: > 100 µM
[3]
  TGI: > 100 µM
[4]
  TGI: > 100 µM
[5]
  TGI: > 100 µM
[52]
  TGI: > 100 µM
[53]
  TGI: > 100 µM
[6]
  TGI: > 100 µM
[54]
  GI50: > 100 µM
  TGI: > 100 µM
[7]
  TGI: > 100 µM
[8]
  TGI: > 100 µM
[9]
  TGI: > 100 µM
[10]
  TGI: > 100 µM
[11]
  TGI: > 100 µM
[12]
  TGI: > 100 µM
[13]
  TGI: > 100 µM
[14]
  TGI: > 100 µM
[15]
  TGI: > 100 µM
[16]
  TGI: > 100 µM
[17]
  GI50: > 100 µM
  TGI: > 100 µM
[18]
  TGI: > 100 µM
[19]
  TGI: > 100 µM
[20]
  TGI: > 100 µM
[21]
  TGI: > 100 µM
[22]
  TGI: > 100 µM
[23]
  TGI: > 100 µM
[24]
  TGI: > 100 µM
[25]
  TGI: > 100 µM
[26]
  TGI: > 100 µM
[27]
  TGI: > 100 µM
[28]
  TGI: > 100 µM
[29]
  TGI: > 100 µM
[30]
  TGI: > 100 µM
[55]
  TGI: > 100 µM
[31]
  TGI: > 100 µM
[32]
  TGI: > 100 µM
[33]
  TGI: > 100 µM
[34]
  TGI: > 100 µM
[35]
  TGI: > 100 µM
[36]
  GI50: > 100 µM
  TGI: > 100 µM
[37]
  GI50: > 100 µM
  TGI: > 100 µM
[38]
  TGI: > 100 µM
[39]
  TGI: > 100 µM
[40]
  TGI: > 100 µM
[41]
  TGI: > 100 µM
[56]
  TGI: > 100 µM
[57]
  TGI: > 100 µM
[42]
  TGI: > 100 µM
[43]
  TGI: > 100 µM
[44]
  TGI: > 100 µM
[45]
  TGI: > 100 µM
[46]
  GI50: > 100 µM
  TGI: > 100 µM
[47]
  TGI: > 100 µM
[48]
  TGI: > 100 µM
[49]
  TGI: > 100 µM
[50]
  TGI: > 100 µM
[51]
  TGI: > 100 µM
